# According to patent US20040191913A1, “Method of evaluation of antioxidation ability by measuring redox balance in vivo” (priority 2002, published 2004):
# Tests used:
# [1] = Radical removability by magnetic spin resonator (attenuation of the DMPO-OOL signal); assay type: biochemical; settings: 10 mM DMPO; for IC50 / 50% Inhibition Concentration: DMPO-OOL signal intensity, 1 minute after start of reaction; for IC50: read-out: 50% Inhibition Concentration
# Protocol: The antioxidation index is obtained by indexing the radical removability, R that is determined by the use of a magnetic spin resonator in the manner mentioned below, within a range of from 1 to 10points. The determination with a magnetic spin resonator is effected as follows: The DMPO-OOL radical resulting from trapping of a butylhydroperoxide radical by a spin trapping agent, 5,5-dimethyl-1-pyrroline-N-oxide (DMPO) is quantitatively determined by the use of a magnetic spin resonator, and a serum sample is added to the system to determine the degree of signal intensity attenuation in the system. […] Radical Removability R=[DMPO]/50% Inhibition Concentration.
# Preferably, the determination with a magnetic spin resonator is effected as follows: 100 mM butylhydroperoxide, 50 μg/ml methemoglobin, 10 mM DMPO and 0.1 mM diethylenetriamine-pentaacetic acid are reacted in 10 mM phosphate buffer. One minute after the start of the reaction, the DMPO-OOL signal intensity is measured by the use of a magnetic spin resonator.
# [2] = system: Leptin receptor-defective, natural diabetic db/db mice; test: Animal test: 0.02% astaxanthin feed in diabetic db/db mice; assay type: in vivo
# Source text: The quantitative determination of 8-OHdG is effected through enzyme immunoassay using a monoclonal antibody.
# Leptin receptor-defective, natural diabetic db/db mice (animal model similar to human type-II diabetes) were used in the test. […] A control group of leptin receptor-defective, natural diabetic db/db mice was not given astaxanthin.
Compound,IC50 [1] [µM],R (Radical Removability = [DMPO]/50% Inhibition Concentration) [1],other results
"CC1=C(/C=C/C(C)=C/C=C/C(C)=C/C=C/C=C(C)/C=C/C=C(C)/C=C/C2=C(C)C(=O)[C@@H](O)CC2(C)C)C(C)(C)C[C@H](O)C1=O [Astaxanthin, astaxanthin]",–,–,"8-OHdG discharge in urine (in words) ([2]; 3 months): significantly inhibits; development of diabetic nephropathy (in words) ([2]; 3 months): significantly retards; 8-OHdG in Urine ([2]; fed for 3 months, enzyme immunoassay, p < 0.05 vs control group): 135.6 ± 41.1 ng/day; Albumin in Urine ([2]; fed for 3 months, p < 0.05 vs control group): 68.6 ± 13.4 µg/day"
N[C@@H](CCC(=O)N[C@@H](CS)C(=O)NCC(=O)O)C(=O)O [Glutathione],410,24,–
CC1=C(/C=C/C(C)=C/C=C/C(C)=C/C=C/C=C(C)/C=C/C=C(C)/C=C/C2=C(C)CCCC2(C)C)C(C)(C)CCC1 [β-Carotene],–,–,50% Inhibition Concentration [1]: >0.2 mg/mL
Catalase,–,–,"50% Inhibition Concentration [1]: >4,000 U/ml"

# Further lines, with some results ahead:
IC50 [1] [µM],Compound,R (Radical Removability = [DMPO]/50% Inhibition Concentration) [1],other results
44,O=C1O[C@H]([C@@H](O)CO)C(O)=C1O [Ascorbic acid],227,–
360,O=c1[nH]c(=O)c2[nH]c(=O)[nH]c2[nH]1 [Uric acid],28,–
700,Cc1c(C)c2c(c(C)c1O)CC[C@@](C)(CCC[C@H](C)CCC[C@H](C)CCCC(C)C)O2 [α-Tocopherol],14,–
